# Measurements reported in patent US20250281497A1, “FUSED AMINO PYRIMIDINE COMPOUNDS FOR TREATMENT OF SEIZURE DISORDERS” (Ovid Therapeutics Inc., priority 2024, published 2025).
# pEC50: −log10 of the molar value. Several values for one entry are separate records, joined by “and”; a condition that tells them apart may be missing. Equal entries are not always repeated.
# Experiments:
# KCC2 = biological target: T1, KCC2 (Homo sapiens, UniProt Q9H2X9); test: FLIPR Tl+ flux assay, HEK-293 cells expressing KCC2; type: cell-based
# T1 construct: expressed in transfected cells; host or cells: HEK-293 (ATCC CRL-1573)
# T1 sequence (Q9H2X9 1-1116 isoform Q9H2X9-2): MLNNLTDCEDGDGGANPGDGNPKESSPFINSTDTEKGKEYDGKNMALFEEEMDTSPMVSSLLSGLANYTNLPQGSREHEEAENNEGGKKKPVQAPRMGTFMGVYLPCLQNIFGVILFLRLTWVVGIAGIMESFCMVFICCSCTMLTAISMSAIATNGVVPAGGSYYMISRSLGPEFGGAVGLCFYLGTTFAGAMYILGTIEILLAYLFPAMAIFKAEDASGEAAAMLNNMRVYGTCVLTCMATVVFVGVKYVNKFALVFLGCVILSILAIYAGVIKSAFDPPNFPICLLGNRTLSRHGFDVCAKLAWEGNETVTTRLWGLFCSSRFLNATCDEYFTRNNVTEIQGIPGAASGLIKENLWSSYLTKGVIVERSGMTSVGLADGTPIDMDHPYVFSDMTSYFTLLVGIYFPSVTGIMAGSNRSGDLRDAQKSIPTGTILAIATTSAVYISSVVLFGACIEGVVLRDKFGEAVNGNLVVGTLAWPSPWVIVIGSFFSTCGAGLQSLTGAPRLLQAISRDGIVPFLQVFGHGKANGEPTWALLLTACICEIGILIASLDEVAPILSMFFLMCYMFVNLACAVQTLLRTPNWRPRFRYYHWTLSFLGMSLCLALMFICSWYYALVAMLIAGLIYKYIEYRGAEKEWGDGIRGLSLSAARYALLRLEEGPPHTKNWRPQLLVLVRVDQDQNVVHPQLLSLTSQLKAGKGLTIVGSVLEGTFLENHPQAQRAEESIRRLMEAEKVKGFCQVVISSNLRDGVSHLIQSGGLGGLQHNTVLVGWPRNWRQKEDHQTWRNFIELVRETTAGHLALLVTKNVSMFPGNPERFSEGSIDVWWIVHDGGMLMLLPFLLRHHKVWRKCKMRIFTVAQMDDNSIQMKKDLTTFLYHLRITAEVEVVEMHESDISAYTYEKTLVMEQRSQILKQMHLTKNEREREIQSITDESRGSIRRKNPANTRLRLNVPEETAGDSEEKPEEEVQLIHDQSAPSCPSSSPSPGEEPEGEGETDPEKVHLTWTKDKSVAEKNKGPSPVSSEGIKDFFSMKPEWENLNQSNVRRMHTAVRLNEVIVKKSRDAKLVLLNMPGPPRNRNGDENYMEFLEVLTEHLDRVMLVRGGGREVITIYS
# Description: A multi-tiered high-throughput screening assay was used, leveraging a proprietary library of 1.3 million small molecule compounds from AstraZeneca (Cambridge, UK) to identify chemical entities capable of activating KCC2. A single point concentration of 30 μM was used to identify potassium flux using an established thallium […] influx FLIPR assay as the primary read out in HEK-293 cells overexpressing KCC2 (Cardarelli et al., Nat. Med. 23, 1394-1396 (2017); Conway et al., J Biol Chem 292, 21253-21263 (2017); Lee et at, 2022, supra).
# Cell Culture and biotinylation. […]
# FLIPR TI Flux assay. HEK-293 cells were washed with HBSS, and then incubated with loading buffer containing TI sensitive fluorescent dye (https://www.moleculardevices.com), 20 μM bumetanide 20 μM ouabain and 2.5 mM probenecid for 1 h at room temperature (RT) under control conditions or with drugs in the dark using a FlexStation 3 microplate reader (Molecular Devices) and imaged […] for 30 min. Stimulus buffer was added containing 5 mM K^+/0.5 mM Tl^+ and cells were imaged every 1.5 over a 190 second time course The initial rate Tl^+ uptake (Relative Fluorescence Units (RFU) per second) was determined following addition of the stimulus buffer as outlined previously (Conway et at, 2017, supra) (Lee et at, 2022, supra). […]
# hippocampal neurons = test: Whole cell patch clamp with imposed Cl− load, hippocampal neurons; type: cell-based, Sprague Dawley; settings: 1 h incubation, 32 mM Cl− load; controls −47.4±2.3
# Description: Neuronal Cultures. Hippocampal neurons were prepared from Sprague Dawley E18 embryos and plated at 450,000 per dish and maintained at 37° C. in a humidified 5% CO2 incubator for 10-25 days before experimentation (Lee et al., Nat. Neurosci. 14, 736-743 (2011)).
# Neuronal Patch clamp assays. Neuronal cell culture recordings were performed in bath saline at 34° C. For gramicidin perforated-patch experiments, pipettes contained (in mM): 140 KCl and 10 HEPES, pH 7.4 KOH. For whole-cell experiments, pipettes contained (in mM): 115 K-meth-SO^4, 30 KCl, 2 Mg-ATP, 4 Na-ATP, 0.4 Na-GTP, and 10 HEPES, pH 7.4 KOH. Bath saline contained the following (in mM): 140 NaCl, 2.5 KCl, 2.5 CaCl2, 2.5 MgCl2, 10 HEPES, and 11 glucose, pH 7.4 NaOH (Kontou et at, 2021, supra). All compound solutions were applied to cells using a three-barreled 700 μm pipe positioned just above the cell (Warner Instruments). […] All voltages from whole-cell experiments were corrected offline using a calculated liquid junction potential value (13.6 mV) in Clampex (Molecular Devices). For gramicidin perforated-patch experiments, intracellular Cl^− values were back-calculated using measured EGABA values and the Nernst equation: […]
# 5 min after break-in, an initial EGABA value was determined and the effects of a subsequent 5 min incubation with VU0463271 was assessed.
compound,measurement,setting,value
"C[C@@H]1CN(c2nc3c(c(Nc4ccc(C5CCCCC5)cc4)n2)COC3)CCO1 [Compound A, (R)—N-(4-cyclohexylphenyl)-2-(2-methylmorpholino)-5,7-dihydrofuro[3,4-d]pyrimidin-4-amine]",pEC50,"KCC2; HEK-293 cells expressing KCC2, 1% β-cyclodextrin vehicle, read-out: EC50 for KCC2 as measured by Tl+ flux",6.59 and 6.58
same,maximum potentiation of KCC2,"KCC2; saturating concentration of 3 μM, 1% BCD vehicle",90%
same,basal EGABA,hippocampal neurons,−59.3±2.1 mV
